The text below walks through data of publication PMC12238268, “The immunomodulatory p43 secreted protein of Trichuris whipworm parasites is a lipid carrier that binds signalling lipids and precursors” (Scientific Reports, 2025).

Common to all, as to type: binding
The target of assay [1] is T1, p43 (Tm-DLP-1) (Trichuris muris, UniProt A0A5S6QYG9).
T1 construct: native, purified from adult worm excretory/secretory medium by Ni-NTA (natural His-rich tail) and Superdex 75; signal peptide predicted cleaved between 17 and 18
In words: fluorescence titration.

Assay [2] has as its target T1, p43 (Tm-DLP-1). In words: intrinsic fluorescence enhancement of ligand. As to conditions: PBS pH 7.2.
Assay [3] concerns the target T1, p43 (Tm-DLP-1). In words: fluorescence enhancement and blue shift of probe. As to conditions: approximately 1 μM DACA; PBS pH 7.2.

T1 sequence (A0A5S6QYG9 entry or part of it): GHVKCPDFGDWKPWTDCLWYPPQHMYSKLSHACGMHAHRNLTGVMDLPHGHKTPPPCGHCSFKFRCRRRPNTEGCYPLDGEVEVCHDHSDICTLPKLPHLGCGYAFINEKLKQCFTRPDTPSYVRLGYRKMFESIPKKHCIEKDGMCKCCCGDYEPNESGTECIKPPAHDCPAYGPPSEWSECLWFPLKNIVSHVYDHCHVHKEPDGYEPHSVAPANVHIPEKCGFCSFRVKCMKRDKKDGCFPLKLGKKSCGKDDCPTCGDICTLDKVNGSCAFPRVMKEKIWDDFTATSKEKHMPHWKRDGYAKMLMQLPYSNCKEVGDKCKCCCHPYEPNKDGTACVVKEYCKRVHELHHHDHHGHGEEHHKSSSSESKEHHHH

One may read the Kd as a measure of binding affinity in units of concentration. A low value points to higher affinity. `CN(C)c1cccc2c(S(=O)(=O)NCCCCCCCCCCC(=O)O)cccc12` [DAUDA, 11-((5-dimethylaminonaphthalene-1-sulfonyl)amino)undecanoic] showed a Kd on p43 (Tm-DLP-1) [1] of 350 nM.
As for `CC\C=C/C=C/C=C/C=C\CCCCCCCC(=O)O` [cis-parinaric acid], the “intrinsic fluorescence enhancement of ligand” value at p43 (Tm-DLP-1) [2] (approximately 4 μM cPnA) was “p43 bound cPnA strongly and was displaceable with oleic acid (Fig. 1C)”.
Consider `CCCCCCC(NS(=O)(=O)c1cccc2c(N(C)C)cccc12)C(=O)O` (stereo not shown) [dansyl aminocaprylic acid], for which the “fluorescence enhancement and blue shift of probe” value on p43 (Tm-DLP-1) [3] is “essentially the same observations with another fluorescent probe, dansyl aminocaprylic acid (DACA)”.
In the case of `CC1=C(/C=C/C(C)=C/C=C/C(C)=C/CO)C(C)(C)CCC1` [retinol], the “intrinsic fluorescence enhancement of ligand” value at p43 (Tm-DLP-1) [2] (approximately 1 μM retinol) is “p43 bound retinol, from which it was displaceable by oleic acid (Fig. 2A)”.
